Source: PubChem BioAssay AID1259407 (Chemical Carcinogenesis Research Information System (CCRIS), 2018)
The source made the active and inactive calls. The rule behind the calls is not given here.

Tested on: CCRIS mutagenicity, Ames/micronucleus/aberration tests
Assay: CCRIS mutagenicity studies
[1] = Test System: AMES SALMONELLA TYPHIMURIUM, Strain/Indicator: TA98, Metabolic Activation: NONE, Method: PREINCUBATION
[2] = Test System: AMES SALMONELLA TYPHIMURIUM, Strain/Indicator: TA100, Metabolic Activation: NONE, Method: PREINCUBATION
[3] = Test System: AMES SALMONELLA TYPHIMURIUM, Strain/Indicator: TA1535, Metabolic Activation: NONE, Method: PREINCUBATION
[4] = Test System: MOUSE LYMPHOMA, Strain/Indicator: L5178Y (TK+/TK-), Metabolic Activation: NONE, Method: SUSPENSION/PLATE
[5] = Test System: MOUSE LYMPHOMA, Strain/Indicator: L5178Y (TK+/TK-), Metabolic Activation: RAT, LIVER, S-9, AROCLOR 1254, Method: SUSPENSION/PLATE

O=C(O)c1nn(Cc2ccc(Cl)cc2Cl)c2ccccc12
mutagenic call (Test System: AMES SALMONELLA TYPHIMURIUM, Strain/Indicator: TA98, Metabolic Activation: NONE, Method: STANDARD PLATE): inactive; negative | mutagenic call (Test System: AMES SALMONELLA TYPHIMURIUM, Strain/Indicator: TA98, Metabolic Activation: RAT, LIVER, S-9, AROCLOR 1254, Method: STANDARD PLATE): inactive; negative | mutagenic call (Test System: AMES SALMONELLA TYPHIMURIUM, Strain/Indicator: TA100, Metabolic Activation: NONE, Method: STANDARD PLATE): inactive; negative | mutagenic call (Test System: AMES SALMONELLA TYPHIMURIUM, Strain/Indicator: TA100, Metabolic Activation: RAT, LIVER, S-9, AROCLOR 1254, Method: STANDARD PLATE): inactive; negative | mutagenic call (Test System: AMES SALMONELLA TYPHIMURIUM, Strain/Indicator: TA1535, Metabolic Activation: NONE, Method: STANDARD PLATE): inactive; negative | mutagenic call (Test System: AMES SALMONELLA TYPHIMURIUM, Strain/Indicator: TA1535, Metabolic Activation: RAT, LIVER, S-9, AROCLOR 1254, Method: STANDARD PLATE): inactive; negative | mutagenic call (Test System: AMES SALMONELLA TYPHIMURIUM, Strain/Indicator: TA1537, Metabolic Activation: NONE, Method: STANDARD PLATE): inactive; negative | mutagenic call (Test System: AMES SALMONELLA TYPHIMURIUM, Strain/Indicator: TA1537, Metabolic Activation: RAT, LIVER, S-9, AROCLOR 1254, Method: STANDARD PLATE): inactive; negative | mutagenic call (Test System: AMES SALMONELLA TYPHIMURIUM, Strain/Indicator: TA1538, Metabolic Activation: NONE, Method: STANDARD PLATE): inactive; negative | mutagenic call (Test System: AMES SALMONELLA TYPHIMURIUM, Strain/Indicator: TA1538, Metabolic Activation: RAT, LIVER, S-9, AROCLOR 1254, Method: STANDARD PLATE): inactive; negative | mutagenic call (Test System: CHINESE HAMSTER OVARY, Strain/Indicator: CHO-K1-BH4 (HPRT), Metabolic Activation: NONE): inactive; negative | mutagenic call (Test System: CHINESE HAMSTER OVARY, Strain/Indicator: CHO-K1-BH4 (HPRT), Metabolic Activation: RAT, LIVER, S-9, AROCLOR 1254): inactive; negative

COc1ccc(N)cc1N
mutagenic call (Test System: AMES SALMONELLA TYPHIMURIUM, Strain/Indicator: TA97, Metabolic Activation: HAMSTER, LIVER, S-9, AROCLOR 1254 (10%), Method: PREINCUBATION): active; positive | mutagenic call (Test System: AMES SALMONELLA TYPHIMURIUM, Strain/Indicator: TA97, Metabolic Activation: NONE, Method: PREINCUBATION): inactive; negative | mutagenic call (Test System: AMES SALMONELLA TYPHIMURIUM, Strain/Indicator: TA97, Metabolic Activation: RAT, LIVER, S-9, AROCLOR 1254 (4 OR 10%), Method: STANDARD PLATE): active; positive | mutagenic call (Test System: AMES SALMONELLA TYPHIMURIUM, Strain/Indicator: TA97, Metabolic Activation: RAT, LIVER, S-9, AROCLOR 1254 (10%), Method: PREINCUBATION): active; positive | mutagenic call (Test System: AMES SALMONELLA TYPHIMURIUM, Strain/Indicator: TA98, Metabolic Activation: HAMSTER, LIVER, S-9, AROCLOR 1254 (10%), Method: PREINCUBATION): active; positive | mutagenic call [1]: active; positive | mutagenic call (Test System: AMES SALMONELLA TYPHIMURIUM, Strain/Indicator: TA98, Metabolic Activation: RAT, LIVER, S-9, AROCLOR 1254 (10%), Method: PREINCUBATION): active; positive | mutagenic call (Test System: AMES SALMONELLA TYPHIMURIUM, Strain/Indicator: TA100, Metabolic Activation: HAMSTER, LIVER, S-9, AROCLOR 1254 (10%), Method: PREINCUBATION): active; positive | mutagenic call [2]: inactive; negative | mutagenic call (Test System: AMES SALMONELLA TYPHIMURIUM, Strain/Indicator: TA100, Metabolic Activation: RAT, LIVER, S-9, AROCLOR 1254 (10%), Method: PREINCUBATION): active; positive | mutagenic call (Test System: AMES SALMONELLA TYPHIMURIUM, Strain/Indicator: TA1535, Metabolic Activation: HAMSTER, LIVER, S-9, AROCLOR 1254 (10%), Method: PREINCUBATION): inactive; negative | mutagenic call [3]: inactive; negative | mutagenic call (Test System: AMES SALMONELLA TYPHIMURIUM, Strain/Indicator: TA1535, Metabolic Activation: RAT, LIVER, S-9, AROCLOR 1254 (10%), Method: PREINCUBATION): inactive; negative | mutagenic call (Test System: AMES SALMONELLA TYPHIMURIUM, Strain/Indicator: TA1537, Metabolic Activation: RAT, LIVER, S-9, AROCLOR 1254 (4 OR 10%), Method: STANDARD PLATE): active; positive | mutagenic call (Test System: AMES SALMONELLA TYPHIMURIUM, Strain/Indicator: TA1538, Metabolic Activation: RAT, LIVER, S-9, AROCLOR 1254 (4 OR 10%), Method: STANDARD PLATE): active; positive | mutagenic call (Test System: CHINESE HAMSTER V-79, Strain/Indicator: V-79/6-THIOGUANINE, Metabolic Activation: NONE, Method: SUSPENSION/PLATE): active; positive | mutagenic call (Test System: CHINESE HAMSTER V-79, Strain/Indicator: V-79/6-THIOGUANINE, Metabolic Activation: RAT, LIVER, S-9, PHENOBARBITAL AND BETA-NAPHTHOFLAVONE, Method: SUSPENSION/PLATE): inactive; negative | mutagenic call (Test System: E. COLI, Strain/Indicator: WP2 UVRA, Metabolic Activation: HAMSTER, LIVER, S-9, AROCLOR 1254, Method: STANDARD PLATE): inactive; negative | mutagenic call (Test System: E. COLI, Strain/Indicator: WP2 UVRA, Metabolic Activation: HAMSTER, LIVER, S-9, Method: STANDARD PLATE): inactive; negative | mutagenic call (Test System: E. COLI, Strain/Indicator: WP2 UVRA, Metabolic Activation: MOUSE, LIVER, S-9, AROCLOR 1254, Method: STANDARD PLATE): inactive; negative | mutagenic call (Test System: E. COLI, Strain/Indicator: WP2 UVRA, Metabolic Activation: MOUSE, LIVER, S-9, Method: STANDARD PLATE): inactive; negative | mutagenic call (Test System: E. COLI, Strain/Indicator: WP2 UVRA, Metabolic Activation: NONE, Method: STANDARD PLATE): inactive; negative | mutagenic call (Test System: E. COLI, Strain/Indicator: WP2 UVRA, Metabolic Activation: RAT, LIVER, S-9, AROCLOR 1254, Method: STANDARD PLATE): inactive; negative | mutagenic call (Test System: E. COLI, Strain/Indicator: WP2 UVRA, Metabolic Activation: RAT, LIVER, S-9, Method: STANDARD PLATE): inactive; negative | mutagenic call [4]: active; positive | mutagenic call [5]: active; positive

C/C([O-])=C(/N=Nc1cc(S(N)(=O)=O)ccc1[O-])C(=O)Nc1ccccc1.C/C([O-])=C(\N=Nc1cc(S(N)(=O)=O)ccc1[O-])C(=O)Nc1ccccc1.[Co+2]
mutagenic call [4]: inactive; negative. reevaluation of results: negative | mutagenic call [5]: inactive; negative. reevaluation of results: negative

O=[N+]([O-])c1cc(Cl)c(Cl)c(Cl)c1Cl
mutagenic call (Test System: AMES SALMONELLA TYPHIMURIUM, Strain/Indicator: TA98, Metabolic Activation: HAMSTER, LIVER, S-9, AROCLOR 1254, Method: PREINCUBATION): inactive; negative | mutagenic call [1]: inactive; negative | mutagenic call (Test System: AMES SALMONELLA TYPHIMURIUM, Strain/Indicator: TA98, Metabolic Activation: RAT, LIVER, S-9, AROCLOR 1254, Method: PREINCUBATION): inactive; negative | mutagenic call (Test System: AMES SALMONELLA TYPHIMURIUM, Strain/Indicator: TA100, Metabolic Activation: HAMSTER, LIVER, S-9, AROCLOR 1254, Method: PREINCUBATION): inactive; negative | mutagenic call [2]: inactive; negative | mutagenic call (Test System: AMES SALMONELLA TYPHIMURIUM, Strain/Indicator: TA100, Metabolic Activation: RAT, LIVER, S-9, AROCLOR 1254, Method: PREINCUBATION): inactive; negative | mutagenic call (Test System: AMES SALMONELLA TYPHIMURIUM, Strain/Indicator: TA1535, Metabolic Activation: HAMSTER, LIVER, S-9, AROCLOR 1254, Method: PREINCUBATION): inactive; negative | mutagenic call [3]: inactive; negative | mutagenic call (Test System: AMES SALMONELLA TYPHIMURIUM, Strain/Indicator: TA1535, Metabolic Activation: RAT, LIVER, S-9, AROCLOR 1254, Method: PREINCUBATION): inactive; negative | mutagenic call (Test System: AMES SALMONELLA TYPHIMURIUM, Strain/Indicator: TA1537, Metabolic Activation: HAMSTER, LIVER, S-9, AROCLOR 1254, Method: PREINCUBATION): inactive; negative | mutagenic call (Test System: AMES SALMONELLA TYPHIMURIUM, Strain/Indicator: TA1537, Metabolic Activation: NONE, Method: PREINCUBATION): inactive; negative | mutagenic call (Test System: AMES SALMONELLA TYPHIMURIUM, Strain/Indicator: TA1537, Metabolic Activation: RAT, LIVER, S-9, AROCLOR 1254, Method: PREINCUBATION): inactive; negative

C/C=C1\C[C@@H](C)[C@](C)(OC(C)=O)C(=O)OC/C2=C/CN(C)CC[C@@H](OC1=O)C2=O
mutagenic call (Test System: AMES SALMONELLA TYPHIMURIUM, Strain/Indicator: TA100, Metabolic Activation: HAMSTER, LIVER, S-9, PCB, Method: PREINCUBATION): inactive; negative; by authors criteria results are positive | mutagenic call (Test System: AMES SALMONELLA TYPHIMURIUM, Strain/Indicator: TA100, Metabolic Activation: RAT, LIVER, S-9, PCB, Method: PREINCUBATION): active; positive | mutagenic call (Test System: UDS RAT HEPATOCYTES, Strain/Indicator: THY INCORP, Metabolic Activation: NONE, Method: AUTORADIOGRAPHY): active; positive
